Reference: the supplement of paper PMC12420376

Tests used:
Test in all cases: cell viability relative to untreated control (ex vivo patient spheroids); higher = less cytotoxic
Conditions in all cases: 72 h
Gem119 = test system: Gem119 (ex vivo spheroids of an HRD-positive high-grade serous ovarian cancer)
Description: (§1)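 Ex vivo 3D spheroid cultures from dissociated tumours of HGSOC patients (DET3CT platform) were treated for 72 h with dose matrices of carboplatin combined with birinapant or vorinostat (nM). Live (TMRM) and dead (POPO-1) cells were imaged and viability was expressed as % of untreated control.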

Gem243 = test system: Gem243 (ex vivo spheroids of an HRD-positive high-grade serous ovarian cancer)
Description: as §1

Gem059 = test system: Gem059 (ex vivo spheroids of an HRD-negative high-grade serous ovarian cancer)
Description: as §1

Gem105 = test system: Gem105 (ex vivo spheroids of an HRD-negative high-grade serous ovarian cancer)
Description: as §1

Gem030 = test system: Gem030 (ex vivo spheroids of an HRD-positive high-grade serous ovarian cancer)
Description: as §1

O=C(O)C1(C(=O)O)CCC1.[NH2-].[NH2-].[Pt+2] [Carboplatin] + CC[C@H](NC(=O)[C@H](C)NC)C(=O)N1C[C@@H](O)C[C@H]1Cc1c(-c2[nH]c3cc(F)ccc3c2C[C@@H]2C[C@H](O)CN2C(=O)[C@H](CC)NC(=O)[C@H](C)NC)[nH]c2cc(F)ccc12 [Birinapant]
cell viability [%]
Conditions | partner drug concentration 0 nM | partner drug concentration 0.1 nM | partner drug concentration 1 nM | partner drug concentration 10 nM | partner drug concentration 100 nM | partner drug concentration 1000 nM
Gem030, carboplatin concentration 10 nM | – | 99.1 | 105 | 99.7 | 95.4 | 59.2
Gem030, carboplatin concentration 100 nM | – | 106 | 115 | 102 | 92.5 | 60.8
Gem030, carboplatin concentration 1000 nM | – | 104 | 91.7 | 101 | 88.9 | 59.8
Gem030, carboplatin concentration 10000 nM | 105 | 102 | 99.6 | 94.2 | 90.1 | 59.3
Gem030, carboplatin concentration 100000 nM | 52.2 | 60.7 | 68 | 68.4 | 47.1 | 27.3
Gem059, carboplatin concentration 10 nM | – | 109 | 101 | 119 | 105 | 102
Gem059, carboplatin concentration 100 nM | – | 99.2 | 99.2 | 122 | 97.4 | 106
Gem059, carboplatin concentration 1000 nM | – | 89.4 | 109 | 117 | 106 | 118
Gem059, carboplatin concentration 10000 nM | 100 | 102 | 99.8 | 97.5 | 112 | 99
Gem059, carboplatin concentration 100000 nM | 77.4 | 82.5 | 97.3 | 79.6 | 85.4 | 90.7
Gem105, carboplatin concentration 10 nM | – | 102 | 90.8 | 94.9 | 105 | 72.5
Gem105, carboplatin concentration 100 nM | – | 102 | 82 | 100 | 89.4 | 79.4
Gem105, carboplatin concentration 1000 nM | – | 110 | 89.4 | 109 | 89.2 | 87.6
Gem105, carboplatin concentration 10000 nM | 91.9 | 97.7 | 83.8 | 92.5 | 80 | 81.6
Gem105, carboplatin concentration 100000 nM | 38.7 | 41.1 | 51.4 | 42.1 | 30.3 | 27.6
Gem119, carboplatin concentration 10 nM | – | 83.3 | 107 | 102 | 90.8 | 67.6
Gem119, carboplatin concentration 100 nM | – | 83.6 | 112 | 74.4 | 90.8 | 66.8
Gem119, carboplatin concentration 1000 nM | – | 111 | 107 | 100 | 117 | 86
Gem119, carboplatin concentration 10000 nM | 112 | 96.4 | 72.9 | 116 | 110 | 81.3
Gem119, carboplatin concentration 100000 nM | 75.9 | 65.3 | 86.1 | 54.4 | 69.5 | 62.6
Gem243, carboplatin concentration 10 nM | – | 92.7 | 105 | 80.2 | 52.3 | 13.7
Gem243, carboplatin concentration 100 nM | – | 108 | 105 | 84.7 | 41.3 | 15.9
Gem243, carboplatin concentration 1000 nM | – | 95.4 | 94.8 | 93.9 | 45.3 | 15.2
Gem243, carboplatin concentration 10000 nM | 89.9 | 90.9 | 77.3 | 82.9 | 42.4 | 13.9
Gem243, carboplatin concentration 100000 nM | 23.6 | 28.8 | 24.9 | 14 | 7.4 | 6

O=C(O)C1(C(=O)O)CCC1.[NH2-].[NH2-].[Pt+2] [Carboplatin] + O=C(CCCCCCC(=O)Nc1ccccc1)NO [Vorinostat]
cell viability [%]
Conditions | partner drug concentration 0 nM | partner drug concentration 1 nM | partner drug concentration 10 nM | partner drug concentration 100 nM | partner drug concentration 1000 nM | partner drug concentration 10000 nM
Gem030, carboplatin concentration 10 nM | 94 | 101 | 104 | 115 | 100 | 47.4
Gem030, carboplatin concentration 100 nM | 102 | 108 | 107 | 98.2 | 101 | 40.2
Gem030, carboplatin concentration 1000 nM | 107 | 110 | 115 | 105 | 106 | 41
Gem030, carboplatin concentration 10000 nM | 105 | 116 | 102 | 111 | 91.1 | 40
Gem030, carboplatin concentration 100000 nM | 52.2 | 87.2 | 69.8 | 65.9 | 67.5 | 17.9
Gem059, carboplatin concentration 10 nM | 109 | 99.3 | 91.5 | 110 | 103 | 86.5
Gem059, carboplatin concentration 100 nM | 107 | 102 | 105 | 114 | 102 | 95.8
Gem059, carboplatin concentration 1000 nM | 91.5 | 107 | 104 | 96.5 | 110 | 94.4
Gem059, carboplatin concentration 10000 nM | 100 | 103 | 116 | 101 | 114 | 95
Gem059, carboplatin concentration 100000 nM | 77.4 | 81.7 | 81.9 | 71.5 | 85 | 71.2
Gem105, carboplatin concentration 10 nM | 105 | 82.6 | 99.6 | 94.3 | 86.4 | 33.3
Gem105, carboplatin concentration 100 nM | 103 | 90.7 | 96.2 | 93.6 | 84.9 | 34.5
Gem105, carboplatin concentration 1000 nM | 89.2 | 102 | 93.5 | 112 | 84.8 | 39.9
Gem105, carboplatin concentration 10000 nM | 91.9 | 105 | 93.4 | 100 | 79.4 | 36
Gem105, carboplatin concentration 100000 nM | 38.7 | 52.6 | 54 | 53.8 | 31.9 | 10.5
Gem119, carboplatin concentration 10 nM | 102 | 90 | 102 | 93.8 | 93 | 26.9
Gem119, carboplatin concentration 100 nM | 124 | 105 | 103 | 118 | 94.6 | 45.7
Gem119, carboplatin concentration 1000 nM | 99.4 | 110 | 92 | 110 | 92.7 | 30.3
Gem119, carboplatin concentration 10000 nM | 112 | 93.7 | 96.1 | 70.3 | 100 | 17.2
Gem119, carboplatin concentration 100000 nM | 75.9 | 50.1 | 81.2 | 44.7 | 58.9 | 9.6
Gem243, carboplatin concentration 10 nM | 90.3 | 88.4 | 82.3 | 101 | 67.9 | 19.7
Gem243, carboplatin concentration 100 nM | 87.3 | 98 | 91.7 | 90.8 | 74.3 | 13.3
Gem243, carboplatin concentration 1000 nM | 107 | 105 | 47.4 | 101 | 68.9 | 10.1
Gem243, carboplatin concentration 10000 nM | 89.9 | 95.3 | 101 | 104 | 42.1 | 10.4
Gem243, carboplatin concentration 100000 nM | 23.6 | 21.6 | 17 | 11.3 | 7.3 | 6.7
